In US5376634A, “Polypeptide compound and a process for preparation thereof” (Fujisawa Pharmaceutical Co., Ltd., priority 1990, dated 1994) one finds acute toxicity and Solubility data, which are given here for one compound.

Starred links: 1 amine or outer side, 2 acyl side, 3 side chain; linkers in the order of their positions; H or OH if unused. Positions of bridges follow the written chain, without caps; N, C: chain ends. Non-standard residues stand in square brackets, D forms with d. Residues, ends and D or L forms follow the SMILES beside them. *: point of attachment. hTyr(3S-OH,4S-OH,3'-OSO3H) = N[C@H](C(=O)O)[C@H](O)[C@@H](O)c1ccc(O)c(OS(=O)(=O)O)c1; Orn(4R-OH,5S-OH) = O=C([C@H](C[C@@H](O)[C@H](O)N[*:3])N[*:1])[*:2]; Pro(3S-OH,4S-Me) = C[C@H]1CN[C@H](C(=O)O)[C@H]1O; Benzoyl(4-octyloxy) = CCCCCCCCOc1ccc(C(=O)*)cc1; Gln(3R-OH) = NC(=O)C[C@@H](O)[C@H](N)C(=O)O; Hyp = O=C(O)[C@@H]1C[C@@H](O)CN1

One data set deals with ICR mice. Nature of the data set: Acute toxicity, single intravenous injection. The format is in vivo. The settings on record: ICR mice (female, 4 weeks old), dose of 500 mg/kg. The protocol:
The acute toxicity of the FR131535 substance was determined to ICR mice (female, 4 weeks old) by a single intravenous injection.

The nature of data set [1]: Solubility (physico-chemical properties). The format is physicochemical.

Take `CCCCCCCCOc1ccc(C(=O)N[C@H]2C[C@@H](O)[C@H](O)NC(=O)[C@@H]3[C@@H](O)[C@@H](C)CN3C(=O)[C@H]([C@H](O)CC(N)=O)NC(=O)[C@H]([C@H](O)[C@@H](O)c3ccc(O)c(OS(=O)(=O)O)c3)NC(=O)[C@@H]3C[C@@H](O)CN3C(=O)[C@H]([C@@H](C)O)NC2=O)cc1` [FR131535] ({Benzoyl(4-octyloxy)}-[Orn(4R-OH,5S-OH)]T[Hyp][hTyr(3S-OH,4S-OH,3'-OSO3H)][Gln(3R-OH)][Pro(3S-OH,4S-Me)]; lactam 1-C): the acute toxicity entry in the data set with ICR mice is listed as “No toxic symptom was observed”. Also, the Solubility result in data set [1] (acetone) is listed as “slightly soluble”; in data set [1] (methanol) it was “soluble”; in data set [1] (n-hexane), “insoluble”; in data set [1] (water), “soluble”.
